According to paper PMC8286840, “Identifying SARS-CoV-2 antiviral compounds by screening for small molecule inhibitors of Nsp3 papain-like protease” (Biochemical Journal, 2021):
Structures can show the parent of a compound that is named as a salt. Where two headings read alike, the source gives them in different places.

Columns and labels:
[1] = target: T1, SARS-CoV-2 PLpro (nsp3 1564–1878) (Severe acute respiratory syndrome coronavirus 2, UniProt P0DTD1); experiment: biochemical; design: FRET-quenched peptide (Pro3) cleavage by PLpro, 10 min pre-incubation, slope over 20 min, normalised to no-compound control; conditions: low concentration screen, read-out: % of control remaining
[2] = target: T1, SARS-CoV-2 PLpro (nsp3 1564–1878); experiment: biochemical; design: FRET-quenched peptide (Pro3) cleavage by PLpro, 10 min pre-incubation, slope over 20 min, normalised to no-compound control; conditions: high concentration screen, read-out: % of control remaining

How did the remaining activity at 1.25 µM ([1]; Well no.=5324) turn out when `CN1CC(=O)NC1=N` [Creatinine] was run?
Its remaining activity at 1.25 µM is 96.6%.

And the remaining activity at 1.25 µM ([1]; Well no.=6967)?
The remaining activity at 1.25 µM was 104%.

What about the remaining activity at 3.75 µM ([2]; Well no.=5324) of the same compound?
Its remaining activity at 3.75 µM is 92.2%.

What about the remaining activity at 3.75 µM ([2]; Well no.=6967) of the same compound?
The remaining activity at 3.75 µM was 101%.

`Cc1cccc(C)c1NC1=NCCCS1` [Xylazine] was tested. Which remaining activity at 1.25 µM ([1]; Well no.=1652) did it give?
Its remaining activity at 1.25 µM is 103%.

What about the remaining activity at 3.75 µM ([2]; Well no.=1652) of the same compound?
The remaining activity at 3.75 µM was 106%.

What does the source list for `Clc1cccc(Cl)c1NC1=NCCN1` [Clonidine hydrochloride]?
remaining activity at 1.25 µM ([1]; Well no.=138): 95.3%; remaining activity at 3.75 µM ([2]; Well no.=138): 98.8%

What does the source list for `CN1CCC(=C2c3ccccc3CC(=O)c3sccc32)CC1` [Ketotifen (fumarate)]?
remaining activity at 1.25 µM ([1]; Well no.=7421): 100%; remaining activity at 3.75 µM ([2]; Well no.=7421): 97%

For `O=C(O)c1cc(/N=N/c2ccc(O)c(C(=O)O)c2)ccc1O` [Olsalazine Sodium], which remaining activity at 1.25 µM ([1]; Well no.=4688) is on record?
Its remaining activity at 1.25 µM is 101%.

What about the remaining activity at 3.75 µM ([2]; Well no.=4688) of the same compound?
The remaining activity at 3.75 µM was 97.9%.

Which remaining activity at 1.25 µM ([1]; Well no.=2127) does the source give for `CN[C@@H]1[C@@H](O[C@H]2O[C@H](CO)[C@@H](N)[C@H](O)[C@H]2O)O[C@H]2C[C@@H](N)[C@@H](O[C@H]3[C@H](O)[C@@H](O)[C@H](N)C[C@@H]3N)O[C@@H]2[C@@H]1O` [Apramycin] here?
The remaining activity at 1.25 µM was 99.8%.

What about the remaining activity at 3.75 µM ([2]; Well no.=2127) of the same compound?
Its remaining activity at 3.75 µM is 102%.

Which results are given for `CCCCc1nc2c(N)nc3ccccc3c2n1Cc1ccc(CN)cc1` [TLR7/8 agonist 1 (dihydrochloride)]?
remaining activity at 1.25 µM ([1]; Well no.=8259): 102%; remaining activity at 3.75 µM ([2]; Well no.=8259): 99.6%

`O=C(O)c1cc([N+](=O)[O-])ccc1NCCCc1ccccc1` [5-Nitro-2-(3-phenylpropylamino)benzoic acid] was tested. Which remaining activity at 1.25 µM ([1]; Well no.=1047) did it give?
Its remaining activity at 1.25 µM is 99.5%.

What about the remaining activity at 3.75 µM ([2]; Well no.=1047) of the same compound?
The remaining activity at 3.75 µM was 99.3%.

How did the remaining activity at 1.25 µM ([1]; Well no.=8442) turn out when `CCc1oc2ccccc2c1C(=O)c1cc(Br)c(O)c(Br)c1` [Benzbromarone] was run?
Its remaining activity at 1.25 µM is 86.8%.

And the remaining activity at 3.75 µM ([2]; Well no.=8442)?
The remaining activity at 3.75 µM was 85.1%.

For `O=C(CN1C(=O)C2(CCCC2)NC[C@H]1c1cc(F)cc(F)c1)Nc1ccc2c(c1)C[C@@]1(C2)C(=O)Nc2ncccc21` [MK-3207 (Hydrochloride)], which remaining activity at 1.25 µM ([1]; Well no.=6950) is on record?
The remaining activity at 1.25 µM was 93.4%.

What about the remaining activity at 3.75 µM ([2]; Well no.=6950) of the same compound?
The remaining activity at 3.75 µM was 93.6%.

With `CNCCC(Oc1ccc(C(F)(F)F)cc1)c1ccccc1` (centres unmarked) [Fluoxetine hydrochloride] as the compound, how does the remaining activity at 1.25 µM ([1]; Well no.=761) read?
Its remaining activity at 1.25 µM is 95.3%.

What about the remaining activity at 3.75 µM ([2]; Well no.=761) of the same compound?
Its remaining activity at 3.75 µM is 93.4%.

`NS(=O)(=O)c1cc2c(cc1Cl)NC(C1CC3C=CC1C3)NS2(=O)=O` (centres unmarked) [Cyclothiazide] was tested. Which remaining activity at 1.25 µM ([1]; Well no.=387) did it give?
Its remaining activity at 1.25 µM is 104%.

And the remaining activity at 3.75 µM ([2]; Well no.=387)?
The remaining activity at 3.75 µM was 101%.

For `O=C(O[C@@H]1C[C@@H]2C[C@H]3C[C@H](C1)N2CC3=O)c1c[nH]c2ccccc12` [Dolasetron], which remaining activity at 1.25 µM ([1]; Well no.=1870) is on record?
The remaining activity at 1.25 µM was 96.1%.

What about the remaining activity at 1.25 µM ([1]; Well no.=6235) of the same compound?
Its remaining activity at 1.25 µM is 106%.

What about the remaining activity at 3.75 µM ([2]; Well no.=1870) of the same compound?
Its remaining activity at 3.75 µM is 96.3%.

And the remaining activity at 3.75 µM ([2]; Well no.=6235)?
The remaining activity at 3.75 µM was 105%.

With `Cc1cc(Cc2cc(C)cc(C(C)(C)C)c2O)c(O)c(C(C)(C)C)c1` [GERI-BP002-A] as the compound, how does the remaining activity at 1.25 µM ([1]; Well no.=3701) read?
The remaining activity at 1.25 µM was 97.3%.

And the remaining activity at 3.75 µM ([2]; Well no.=3701)?
Its remaining activity at 3.75 µM is 101%.

How did the remaining activity at 1.25 µM ([1]; Well no.=157) turn out when `Nc1c2c(nc3ccccc13)CCCC2` [9-Amino-1,2,3,4-tetrahydroacridine hydrochloride] was run?
Its remaining activity at 1.25 µM is 102%.

And the remaining activity at 3.75 µM ([2]; Well no.=157)?
Its remaining activity at 3.75 µM is 102%.

`O=C1NC(=O)C(c2cn(CCCO)c3ncccc23)=C1c1cnccn1` [GSK-3b Inhibitor XI] was tested. Which remaining activity at 1.25 µM ([1]; Well no.=2470) did it give?
The remaining activity at 1.25 µM was 101%.

And the remaining activity at 3.75 µM ([2]; Well no.=2470)?
Its remaining activity at 3.75 µM is 102%.

How did the remaining activity at 1.25 µM ([1]; Well no.=4546) turn out when `CCCCCCCC/C=C/CCCCCCCCC(=O)O` [10(E)-Nonadecenoic acid] was run?
The remaining activity at 1.25 µM was 98.5%.

What about the remaining activity at 3.75 µM ([2]; Well no.=4546) of the same compound?
Its remaining activity at 3.75 µM is 102%.

Which results are given for `OC[C@@H](O)[C@H]1NC[C@@H](O)[C@H]1O` [1,4-Dideoxy-1,4-imino-D-mannitol hydrochloride]?
remaining activity at 1.25 µM ([1]; Well no.=536): 101%; remaining activity at 3.75 µM ([2]; Well no.=536): 99.2%

`C=C[C@@]1(C)CC[C@H]2C(=CC[C@@H]3[C@]2(C)CCC[C@@]3(C)C(=O)O)C1` [Isopimaric Acid] was tested. Which remaining activity at 1.25 µM ([1]; Well no.=5672) did it give?
Its remaining activity at 1.25 µM is 94.1%.

And the remaining activity at 3.75 µM ([2]; Well no.=5672)?
The remaining activity at 3.75 µM was 93.1%.

Which results are given for `NCCCCN(Cc1nc2ccccc2[nH]1)[C@H]1CCCc2cccnc21` [AMD-070 (hydrochloride)]?
remaining activity at 1.25 µM ([1]; Well no.=7093): 106%; remaining activity at 3.75 µM ([2]; Well no.=7093): 100%

With `COc1cc2nc(N3CCN(C(=O)C4COc5ccccc5O4)CC3)nc(N)c2cc1OC` (centres unmarked) [Doxazosin (mesylate)] as the compound, how does the remaining activity at 1.25 µM ([1]; Well no.=8187) read?
Its remaining activity at 1.25 µM is 105%.

And the remaining activity at 3.75 µM ([2]; Well no.=8187)?
The remaining activity at 3.75 µM was 102%.

With `CCCCCCCCCCC/C=C\C/C=C\CCCC(=O)O` [Eicosa-5,8-dienoic acid (20:2 n-12)] as the compound, how does the remaining activity at 1.25 µM ([1]; Well no.=4309) read?
Its remaining activity at 1.25 µM is 102%.

And the remaining activity at 3.75 µM ([2]; Well no.=4309)?
Its remaining activity at 3.75 µM is 106%.

Which remaining activity at 1.25 µM ([1]; Well no.=2789) does the source give for `C[C@H]1CCN(C(=O)CC#N)C[C@H]1N(C)c1ncnc2[nH]ccc12` [Tasocitinib] here?
Its remaining activity at 1.25 µM is 103%.

And the remaining activity at 3.75 µM ([2]; Well no.=2789)?
The remaining activity at 3.75 µM was 98.6%.

`Cc1noc(-c2ccc(-c3ccc(CC(=O)O)cc3)cc2)c1NC(=O)O[C@H](C)c1ccccc1Cl` [AM966] was tested. Which remaining activity at 1.25 µM ([1]; Well no.=6941) did it give?
The remaining activity at 1.25 µM was 104%.

What about the remaining activity at 3.75 µM ([2]; Well no.=6941) of the same compound?
Its remaining activity at 3.75 µM is 102%.

What does the source list for `O=C(Nc1cccc(-c2ccccc2)c1)OC1CCCCC1` [URB602]?
remaining activity at 1.25 µM ([1]; Well no.=5392): 99.5%; remaining activity at 3.75 µM ([2]; Well no.=5392): 105%

How did the remaining activity at 1.25 µM ([1]; Well no.=6284) turn out when `CN(C)CCC=C1c2ccccc2C=Cc2ccccc21` [Cyclobenzaprine (hydrochloride)] was run?
Its remaining activity at 1.25 µM is 106%.

And the remaining activity at 3.75 µM ([2]; Well no.=6284)?
Its remaining activity at 3.75 µM is 105%.

How did the remaining activity at 1.25 µM ([1]; Well no.=1579) turn out when `COc1cc2ncnc(Nc3ccc(F)c(Cl)c3)c2cc1OCCCN1CCOCC1` [Gefitinib] was run?
Its remaining activity at 1.25 µM is 102%.

What about the remaining activity at 1.25 µM ([1]; Well no.=2743) of the same compound?
Its remaining activity at 1.25 µM is 101%.

What about the remaining activity at 3.75 µM ([2]; Well no.=1579) of the same compound?
The remaining activity at 3.75 µM was 102%.

What about the remaining activity at 3.75 µM ([2]; Well no.=2743) of the same compound?
The remaining activity at 3.75 µM was 101%.

`Nc1ncnc2c1ncn2[C@@H]1O[C@H](COP(=O)(O)OP(=O)(O)OP(=O)(O)OP(=O)(O)OC[C@H]2O[C@@H](n3cnc4c(N)ncnc43)[C@H](O)[C@@H]2O)[C@@H](O)[C@H]1O` [P1,P4-Di(adenosine-5')tetraphosphate triammonium] was tested. Which remaining activity at 1.25 µM ([1]; Well no.=731) did it give?
Its remaining activity at 1.25 µM is 96.1%.

And the remaining activity at 3.75 µM ([2]; Well no.=731)?
Its remaining activity at 3.75 µM is 94.1%.

Which results are given for `CC1(C)S[C@@H]2[C@H](NC(=O)[C@H](C(=O)O)c3ccsc3)C(=O)N2[C@H]1C(=O)O` [Ticarcillin (disodium)]?
remaining activity at 1.25 µM ([1]; Well no.=7782): 105%; remaining activity at 3.75 µM ([2]; Well no.=7782): 109%

Which results are given for `Nc1nc2[nH]cc(CCc3ccc(C(=O)N[C@@H](CCC(=O)O)C(=O)O)cc3)c2c(=O)[nH]1` [Pemetrexed (disodium hemipenta hydrate)]?
remaining activity at 1.25 µM ([1]; Well no.=7604): 95.1%; remaining activity at 3.75 µM ([2]; Well no.=7604): 95.6%

For `Cc1noc(NS(=O)(=O)c2ccc(N)cc2)c1C` [Sulfisoxazole], which remaining activity at 1.25 µM ([1]; Well no.=4664) is on record?
The remaining activity at 1.25 µM was 95.8%.

What about the remaining activity at 1.25 µM ([1]; Well no.=7548) of the same compound?
Its remaining activity at 1.25 µM is 104%.

And the remaining activity at 1.25 µM ([1]; Well no.=8283)?
The remaining activity at 1.25 µM was 97.8%.

And the remaining activity at 3.75 µM ([2]; Well no.=4664)?
Its remaining activity at 3.75 µM is 97.2%.

And the remaining activity at 3.75 µM ([2]; Well no.=7548)?
The remaining activity at 3.75 µM was 101%.

What about the remaining activity at 3.75 µM ([2]; Well no.=8283) of the same compound?
The remaining activity at 3.75 µM was 97.6%.

How did the remaining activity at 1.25 µM ([1]; Well no.=6214) turn out when `O=C1NCCCc2c1oc1ccc(O)cc21` [CID755673] was run?
The remaining activity at 1.25 µM was 104%.

And the remaining activity at 3.75 µM ([2]; Well no.=6214)?
The remaining activity at 3.75 µM was 96%.
